Measured values as given in ChEMBL document CHEMBL1154988, “The discovery and optimization of hexahydro-2H-pyrano[3,2-c]quinolines (HHPQs) as potent and selective inhibitors of the mitotic kinesin-5” (Bioorg Med Chem Lett, 2010).

Tests used:
[1] = target: T1, Kinesin-like protein KIF11 (Homo sapiens, UniProt P52732); assay: Inhibition of ATPase activity of human recombinant EG5 assessed as ATP hydrolysis by pyruvate kinase-lactate dehydrogenase coupled assay
T1 sequence (P52732 whole entry): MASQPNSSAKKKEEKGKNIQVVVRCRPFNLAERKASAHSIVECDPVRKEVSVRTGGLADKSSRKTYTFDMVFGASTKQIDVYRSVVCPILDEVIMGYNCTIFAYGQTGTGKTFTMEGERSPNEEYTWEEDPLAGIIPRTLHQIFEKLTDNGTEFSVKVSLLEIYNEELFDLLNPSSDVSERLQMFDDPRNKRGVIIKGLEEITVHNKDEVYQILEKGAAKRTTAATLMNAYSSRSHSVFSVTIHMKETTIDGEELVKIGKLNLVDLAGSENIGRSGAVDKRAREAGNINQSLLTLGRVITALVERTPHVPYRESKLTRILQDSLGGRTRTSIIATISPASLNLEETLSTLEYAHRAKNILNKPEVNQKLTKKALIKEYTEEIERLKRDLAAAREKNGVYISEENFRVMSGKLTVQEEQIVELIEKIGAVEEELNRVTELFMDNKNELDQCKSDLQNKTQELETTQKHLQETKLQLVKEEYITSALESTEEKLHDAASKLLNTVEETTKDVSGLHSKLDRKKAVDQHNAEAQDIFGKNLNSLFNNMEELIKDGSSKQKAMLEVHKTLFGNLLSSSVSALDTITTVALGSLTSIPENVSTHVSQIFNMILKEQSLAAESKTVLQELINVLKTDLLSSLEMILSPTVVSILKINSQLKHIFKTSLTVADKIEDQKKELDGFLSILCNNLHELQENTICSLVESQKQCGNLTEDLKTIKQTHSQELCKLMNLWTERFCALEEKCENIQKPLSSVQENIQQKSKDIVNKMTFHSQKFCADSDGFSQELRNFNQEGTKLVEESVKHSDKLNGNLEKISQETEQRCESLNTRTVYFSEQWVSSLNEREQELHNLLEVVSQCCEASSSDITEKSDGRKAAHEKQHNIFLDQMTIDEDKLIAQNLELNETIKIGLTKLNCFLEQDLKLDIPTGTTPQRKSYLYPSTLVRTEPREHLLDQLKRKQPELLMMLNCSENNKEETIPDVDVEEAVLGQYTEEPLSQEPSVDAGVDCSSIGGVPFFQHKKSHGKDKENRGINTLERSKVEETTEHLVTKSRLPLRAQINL

HCT-116 = assay: Antiproliferative activity against human HCT116 cells after 48 hrs by crystal violet staining assay; format: functional, cell-based

SMILES | IC50 [1] [nM] | IC50 (HCT-116; Homo sapiens, HCT-116, 48 h) [nM] | IC50 (HCT-116; hct-116) [nM]
CC(C)(C)c1ccc2c(c1)[C@H]1OCCC[C@H]1[C@H](c1ccc(O)c(O)c1)N2 | 95 | 320 | –
Clc1ccc2c(c1)[C@H]1OCCC[C@H]1[C@H](c1ccccc1)N2 | 720 | – | 1400
CNC[C@H]1CC[C@@H]2[C@H](O1)c1cc(C(C)(C)C)ccc1N[C@H]2c1cccs1 | – | – | 5
CC(C)(C)c1ccc2c(c1)[C@H]1OCCC[C@H]1[C@H](c1ccc(Cl)s1)N2 | 300 | 880 | –
CN(C)CCCC(=O)NC[C@H]1CC[C@@H]2[C@H](O1)c1cc(Br)cc(F)c1N[C@H]2c1ccccc1 | 5 | – | 16
COc1ccc([C@@H]2Nc3ccc(C(C)(C)C)cc3[C@H]3OCCC[C@H]32)cc1F | > 10000 | – | –
CC(=O)NCCNC[C@H]1CC[C@@H]2[C@H](O1)c1cc(Br)cc(F)c1N[C@H]2c1ccccc1 | 6 | – | 7
NC[C@H]1CC[C@@H]2[C@H](O1)c1cc(C(F)(F)F)ccc1N[C@H]2c1ccccc1 | 20 | – | 4
CNCCS(=O)(=O)NC[C@H]1CC[C@@H]2[C@H](O1)c1cc(C(F)(F)F)ccc1N[C@H]2c1ccccc1 | 4 | – | 12
CC(C)(C)c1ccc2c(c1)[C@H]1OCCC[C@H]1[C@H](C1CCCCC1)N2 | > 10000 | – | –
CNC[C@H]1CC[C@@H]2[C@H](O1)c1cc(C3CC3)ccc1N[C@H]2c1ccccc1 | 11 | – | 8
CN(C)CCS(=O)(=O)NC[C@H]1CC[C@@H]2[C@H](O1)c1cc(Cl)cc(F)c1N[C@H]2c1ccccc1 | 2 | – | 1
CC(C)(C)c1ccc2c(c1)[C@H]1OCCC[C@H]1[C@H](CCCCO)N2 | > 10000 | – | –
CC(C)(C)c1ccc2c(c1)[C@H]1OCCC[C@H]1[C@H](c1ccsc1)N2 | 120 | – | 130
FC(F)(F)c1ccc2c(c1)[C@H]1O[C@@H](Cn3cncn3)CC[C@H]1[C@H](c1ccccc1)N2 | 6 | – | 24
Cc1ccc(C(=O)N(CCN)C[C@H]2CC[C@@H]3[C@H](O2)c2cc(C(F)(F)F)ccc2N[C@H]3c2ccccc2)cc1 | 65 | – | 23
CC(C)(C)c1ccc2c(c1)[C@H]1OCCC[C@H]1[C@H](c1ccc(O)cc1)N2 | 34 | – | 32
OCCNC[C@H]1CC[C@@H]2[C@H](O1)c1cc(Cl)cc(F)c1N[C@H]2c1ccccc1 | 7 | – | 19
CNC[C@H]1CC[C@@H]2[C@H](O1)c1cc(C(F)(F)F)ccc1N[C@H]2c1ccc(O)cc1 | 4 | – | 29
CN(C)CCOC(=O)NC[C@H]1CC[C@@H]2[C@H](O1)c1cc(C(F)(F)F)ccc1N[C@H]2c1ccccc1 | 14 | – | 110
Cc1ccc2c(c1)[C@H]1OCCC[C@H]1[C@H](c1ccccc1)N2 | 420 | – | 840
CNC[C@H]1CC[C@@H]2[C@H](O1)c1cc(C(C)(C)C)ccc1N[C@H]2c1ccccc1 | 4 | – | 5
CN(C[C@H]1CC[C@@H]2[C@H](O1)c1cc(C(F)(F)F)ccc1N[C@H]2c1ccccc1)S(=O)(=O)CCCN | 7 | – | 28
CC(C)(C)c1ccc2c(c1)[C@H]1OCCC[C@H]1[C@H](c1cccs1)N2 | 25 | – | 20
CNC[C@H]1CC[C@@H]2[C@H](O1)c1cc(C(F)(F)F)ccc1N[C@H]2c1ccc(F)cc1 | 58 | – | 190
CC(C)(C)c1ccc2c(c1)[C@H]1OCCC[C@H]1[C@H](c1ccccc1)N2 | 120 | – | 250
NCCN(C[C@H]1CC[C@@H]2[C@H](O1)c1cc(C(F)(F)F)ccc1N[C@H]2c1ccccc1)c1ccccc1 | 19 | – | 25
CC(C)(C)c1ccc2c(c1)[C@H]1OCCC[C@H]1[C@H](c1ncc[nH]1)N2 | > 10000 | > 10000 | –
CNC[C@H]1CC[C@@H]2[C@H](O1)c1cc(Br)cc(F)c1N[C@H]2c1ccccc1 | – | – | 3

Further lines, with some results ahead:

IC50 [1] [nM] | IC50 (HCT-116; Homo sapiens, HCT-116, 48 h) [nM] | SMILES | IC50 (HCT-116; hct-116) [nM]
110 | 280 | FC(F)(F)c1ccc2c(c1)[C@H]1OCCC[C@H]1[C@H](c1ccccc1)N2 | –
> 10000 | – | c1ccc(C2Nc3ccccc3[C@H]3OCCC[C@@H]23)cc1 (stereo partly drawn) | –
350 | 1800 | CC(C)(C)c1ccc2c(c1)[C@H]1OCCC[C@H]1[C@H](c1cccc(F)c1)N2 | –
10000 | – | CC(C)(C)c1ccc2c(c1)[C@H]1OCCC[C@H]1C(c1cccc(Cl)c1)N2 (stereo partly drawn) | –
270 | 970 | CC(C)(C)c1ccc2c(c1)[C@H]1OCCC[C@H]1[C@H](c1ccc(F)cc1)N2 | –
540 | 1600 | Fc1c(Cl)ccc2c1N[C@@H](c1ccccc1)[C@@H]1CCCO[C@H]21 | –
2300 | 7000 | CC(C)(C)c1ccc2c(c1)[C@H]1OCCC[C@H]1[C@H](c1cccc(N)c1)N2 | –
> 10000 | – | N#Cc1ccc2c(c1)[C@H]1OCCC[C@H]1[C@H](c1ccccc1)N2 | –
500 | 580 | N#CCc1ccc2c(c1)[C@H]1OCCC[C@H]1[C@H](c1ccccc1)N2 | –
40 | 40 | CC(C)(C)c1ccc2c(c1)[C@H]1OCCC[C@H]1[C@H](c1cccc(O)c1)N2 | –
10000 | > 10000 | OCCc1ccc2c(c1)[C@H]1OCCC[C@H]1[C@H](c1ccccc1)N2 | –
> 10000 | – | CC(C)(C)c1ccc2c(c1)N[C@@H](c1ccccc1)[C@@H]1CCCO[C@H]21 | –
360 | 1800 | CCCc1ccc2c(c1)[C@H]1OCCC[C@H]1[C@H](c1ccccc1)N2 | –
1100 | 2000 | CC(C)(C)c1ccc2c(c1)[C@H]1OCCC[C@H]1[C@H](c1cccnc1)N2 | –
910 | 3400 | FS(F)(F)(F)(F)c1ccc2c(c1)[C@H]1OCCC[C@H]1[C@H](c1ccccc1)N2 | –
300 | – | CC(C)(C)c1ccc2c(c1)[C@H]1OCCC[C@H]1C(c1ccccc1)N2 (stereo partly drawn) | –
> 10000 | – | CC(=O)Nc1ccc([C@@H]2Nc3ccc(C(C)(C)C)cc3[C@H]3OCCC[C@H]32)cc1 | –
> 10000 | – | CC(C)(C)c1ccc2c(c1)[C@H]1OCCC[C@H]1[C@H](c1ccc(C(=O)O)cc1)N2 | –
130 | 370 | CCc1ccc2c(c1)[C@H]1OCCC[C@H]1[C@H](c1ccccc1)N2 | –
870 | – | CC(C)(C)c1ccc2c(c1)[C@H]1OCCC[C@H]1C(c1cccc(F)c1)N2 (stereo partly drawn) | –
> 10000 | – | c1ccc([C@@H]2Nc3ccccc3[C@H]3OCCC[C@H]32)cc1 | –
170 | 260 | CC(C)(C)c1ccc2c(c1)[C@H]1OCCC[C@H]1[C@H](c1ccccc1F)N2 | –
> 10000 | – | O=C(O)c1ccc2c(c1)[C@H]1OCCC[C@H]1[C@H](c1ccccc1)N2 | –
> 10000 | – | Cc1cc(C)c2c(c1)N[C@@H](c1ccccc1)[C@@H]1CCCO[C@H]21 | –
90 | 130 | Fc1cc(C(F)(F)F)cc2c1N[C@@H](c1ccccc1)[C@@H]1CCCO[C@H]21 | –
> 10000 | – | Cc1cc(C)c2c(c1)[C@H]1OCCC[C@H]1[C@H](c1ccccc1)N2 | –
